The values below come from ChEMBL document CHEMBL1132125, “Synthesis of phosphonate 3-phthalidyl esters as prodrugs for potential intracellular delivery of phosphonates” (Bioorg Med Chem Lett, 1999).

Data set [1] can be described thus: Half-life period of compound was measured in rat plasma. Type of data set: ADME.
The species named for a further data set is Rattus norvegicus. The data set can be described thus: Intracellular concentration of 1-naphthalenemethylphosphonate (NMPA) in isolated rat hepatocytes was measured after 15 min of incubation. It is filed as functional. The conditions noted are these: Hepatocyte.

In general, half-life refers to the time in which the quantity being followed falls by half. In data set [1], `COc1cc2c(c(OC)c1OC)C(=O)OC2OP(=O)(Cc1cccc2ccccc12)OC1OC(=O)c2c1cc(OC)c(OC)c2OC` (configuration not stated) showed a half-life of 5 min. Besides, the Concentration in the data set filed under Rattus norvegicus was 246 µM. `O=P(O)(O)Cc1cccc2ccccc12`: the Concentration in the data set filed under Rattus norvegicus is 0 µM. On the same count and under the same terms, then `COc1cc(OC)c2c(c1)C(OP(=O)(Cc1cccc3ccccc13)OC1OC(=O)c3c(OC)cc(OC)cc31)OC2=O` (configuration not stated), with 359 µM; and `COc1cccc2c1C(OP(=O)(Cc1cccc3ccccc13)OC1OC(=O)c3cccc(OC)c31)OC2=O` (configuration not stated), with 0 µM. In data set [1], `COc1ccc2c(c1)C(OP(=O)(Cc1cccc3ccccc13)OC1OC(=O)c3ccc(OC)cc31)OC2=O` (configuration not stated) gave a half-life of 0.5 min. For the same compound, the Concentration in the data set listed under Rattus norvegicus worked out at 428 µM. For `O=C1OC(OP(=O)(Cc2cccc3ccccc23)OC2OC(=O)c3ccccc32)c2ccccc21` (configuration not stated) the same measures were 0.5 min and 500 µM. For `CCOc1cccc2c1C(=O)OC2OP(=O)(Cc1cccc2ccccc12)OC1OC(=O)c2c(OCC)cccc21` (configuration not stated) the same measures were 2 min and 208 µM. In the case of `Cc1ccc2c(c1-c1ccccc1)C(=O)OC2OP(=O)(Cc1cccc2ccccc12)OC1OC(=O)c2c1ccc(C)c2-c1ccccc1` (configuration not stated), the half-life in data set [1] is 10 min. The Concentration in the data set filed under Rattus norvegicus came to 20 µM.

`COc1cccc2c1C(=O)OC2OP(=O)(Cc1cccc2ccccc12)OC1OC(=O)c2c(OC)cccc21` (configuration not stated) yielded a half-life in data set [1] of 2 min. The compound further registered a Concentration in the data set listed under Rattus norvegicus of 336 µM. The corresponding values for `O=C1OC(OP(=O)(Cc2cccc3ccccc23)OC2OC(=O)c3c(Cl)ccc(Cl)c32)c2c(Cl)ccc(Cl)c21` (configuration not stated) are 0.1 min and 78 µM.
